Laboratory results reported in PMC9926234, “Iterative computational design and crystallographic screening identifies potent inhibitors targeting the Nsp3 macrodomain of SARS-CoV-2” (Proceedings of the National Academy of Sciences of the …, 2023).
Read-outs that look alike come from different tables or passages of the source.

Biological target: SARS-CoV-2 NSP3 Mac1 (Severe acute respiratory syndrome coronavirus 2, UniProt P0DTD1)
Format: binding
Set-up: contains a conserved macrodomain enzyme (Mac1)
Details: for Spearman est (compound concentration vs apparent Tm): DSF dose responsiveness, 1 µM nsp3 mac1, adj p given
Experimental: DSF and associated compound handling was performed as described ([12]), with 5 µM dye “Fluorescent Yellow” (Jacquard iDye Cat #JID1405) used in place of SYPRO Orange. Compounds were tested in triplicate, at seven concentrations in two-fold serial dilutions, at a top concentration of either 1,000 or 100 μM. To minimize experimental noise arising from plate location-based effects on Tma, all concentrations and replicates for each compound were tested within a single region of the microtiter plates, including a DMSO-only control from which ΔTmas were calculated for that compound. […] For each compound, to determine statistical significance of the dose responsive thermal shift, the Spearman’s coefficient was calculated between compound concentration and ΔTma.

[1] = maximal thermal upshift vs DMSO control

| Compound | DSF max dTma [1] | Spearman est (compound concentration vs apparent Tm) | DSF max dTma (maximal thermal upshift) |
| --- | --- | --- | --- |
| NC(=O)c1ccc(CCSc2cccc(F)c2)cc1 [Z8885] | 0.09 °C | – | – |
| c1ccc2c(c1)N(c1ncnc3[nH]ccc13)CC21CC1 [Z9310] | 0 °C | – | – |
| CS(=O)(=O)C1CCCN(c2ncnc3[nH]c(Cl)cc23)C1 (stereo not shown) [Z9550] | 0.64 °C | – | – |
| c1ccc2c(-c3noc(CCCc4nc(C5CC5)no4)n3)n[nH]c2c1 [Z9652] | 0.72 °C | – | – |
| O=C(Nc1nc2ccccc2c(=O)[nH]1)c1cccnc1 [Z1082933628] | – | 0.37 | – |
| O=C(NC(C(=O)O)c1c[nH]c2ccccc12)c1ncnc2[nH]ccc12 (stereo not shown) [Z4661819162] | – | −0.51 | – |
| CCOC(=O)C(NC(=O)c1c[nH]c2ncncc12)c1c[nH]c2ccccc12 (stereo not shown) [Z4661819167] | – | 0.82 | – |
| O=C1CSc2cc(C(=O)OC3c4ccccc4CC3F)ccc2N1 (stereo not shown) [Z4718398554] | – | −0.18 | – |
| Cc1nc(Cn2cnc3c(N)nc(N)nc32)cs1 [Z4718398569] | – | 0.06 | – |
| Nc1nc(N)c2ncn(Cc3csc(Cl)n3)c2n1 [Z4718398572] | – | 0.89 | – |
| Nc1nc(N)c2ncn(Cc3csc(C4CC4)n3)c2n1 [Z4718398585] | – | 0.75 | – |
| O=C(Nc1cccnc1)Nc1nc2ccccc2c(=O)[nH]1 [Z4718398593] | – | −0.56 | – |
| O=C(NCc1nc2ccccc2c(=O)[nH]1)Nc1cccnc1 [Z4718398598] | – | −0.41 | – |
| O=C(Nc1cccnc1)Nc1ccc2ccccc2n1 [Z4718398614] | – | −0.43 | – |
| COc1ccc(Cl)cc1Cn1cnc2c(N)ncnc21 [ZINC000110510953] | – | 0.55 | – |
| O=C1CCCN1CCSc1ncnc2[nH]cnc12 [ZINC000118179920] | – | 0.78 | – |

| Compound | DSF max dTma [1] | Spearman est (compound concentration vs apparent Tm) | DSF max dTma (maximal thermal upshift) |
| --- | --- | --- | --- |
| CC1CN(C(=O)CCc2nc(-c3ccncc3)no2)C1c1ccccc1 (stereo not shown) [ZINC000173980856] | – | 0.61 | – |
| O=C(c1cccc(O)c1)N1CCC(Nc2ccccc2)C1 (stereo not shown) [ZINC000182324508] | – | 0.13 | – |
| Cc1cc(C(=O)C(C#N)c2nnc3n2CCCCC3)cc(O)n1 (stereo not shown) [ZINC000183202483] | – | −0.33 | 0 ˚C |
| Cc1ccc(-c2noc(C3CC(=O)N(c4cn[nH]c4)C3)n2)cc1 (stereo not shown) [ZINC000189176019] | – | −0.48 | – |
| Cc1oc(=O)oc1CSc1ncnc2[nH]cnc12 [ZINC000222377450] | – | 0.54 | – |
| c1ccc(-c2n[nH]c(Cc3noc([C@@H]4CCCO4)n3)n2)cc1 [ZINC000273900063] | – | −0.02 | 0.03 ˚C |
| OCc1cn(C2CCCN(c3ncnc4[nH]ccc34)C2)nn1 (stereo not shown) [ZINC000292637864] | – | 0.65 | – |
| O=C(c1cccc(O)c1)N1CC=C(c2ccccc2)C1 [ZINC000336444141] | – | 0.55 | – |
| Fc1ccc(F)c(Sc2ncnc3[nH]ccc23)c1 [ZINC000339235289] | – | 0.01 | – |
| Cc1nc(Cc2noc(Cc3ccc4[nH]ncc4c3)n2)no1 [ZINC000345855262] | – | −0.06 | – |
| COc1ccc(-c2nnc(NC(=O)Cc3ncccc3F)s2)cc1 [ZINC000350686468] | – | 0.17 | – |
| Cc1oc(-c2cccs2)nc1Cc1nc(-c2cncnc2N)no1 [ZINC000350813789] | – | 0.74 | – |
| CC(C)c1noc(CCc2nc(-c3ccnc4[nH]ccc34)no2)n1 [ZINC000351161347] | – | −0.81 | – |
| c1ccc2c(c1)N(c1ncnc3[nH]ccc13)CC21CC1 [ZINC000352369310] | – | −0.82 | – |
| Cc1nc(S(=O)(=O)NCc2ccc(-c3ccncc3)cc2)cn1C [ZINC000352487041] | – | 0.73 | – |
| c1ccc2c(-c3noc(CCCc4nc(C5CC5)no4)n3)n[nH]c2c1 [ZINC000356759652] | – | 0.72 | – |
